Molecular target: SARS-CoV-2 M^pro (Severe acute respiratory syndrome coronavirus 2, UniProt P0DTD1)
Format: binding
Conditions: pH 6.8

## CCN(CC)c1ccc2c(-c3ccccc3C(=O)O)c3ccc(=[N+](CC)CC)cc-3oc2c1 [rhodamine B]
  Fluorescent labeling of M^pro (gel, UV 365 nm): could not label M^pro

From PMC8026246 (Bioorganic Chemistry, 2021)
